According to patent US12653191B2, “Active compound combinations” (Bayer Aktiengesellschaft, priority 2020, dated 2026):
Several values for one entry are separate records, joined by “and”; a condition that tells them apart may be missing. Equal entries are not always repeated.

Assays:
Alternaria alternate = experiment: in vitro-Test with fungal microorganisms, Method A (tables A1-A12); assay type: cell-based, Alternaria alternata; details: applied alone
Method in brief: (§1)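 Methanol/emulsifier compound solution evaporated in well; liquid potato dextrose medium + spore or mycelium suspension added; 20° C, 85% RH, 3-5 d; photometric read 620 nm; % efficacy vs untreated.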

Alternaria alternata = experiment: in vitro-Test with fungal microorganisms, Method B (tables A13-A22); assay type: cell-based; details: single compound
Method in brief: (§2)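 Efficacy, relative to untreated control (0% = growth as in control, 100% = no growth), from photometric growth measurement at 600 nm after 3 to 7 days at 20° C., 85% relative humidity. Compound applied in methanol+emulsifier, solvent evaporated, then spore/mycelium-amended liquid medium added.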

Botrytis cinerea [1] = experiment: in vitro-Test with fungal microorganisms, Method A (tables B1-B14); assay type: cell-based; details: for Efficacy %: alone
Method in brief: as §1

Botrytis cinerea [2] = experiment: in vitro-Test with fungal microorganisms, Method B (tables B15-B18); assay type: cell-based; details: alone
Method in brief: as §2

Cercospora beticola [3] = experiment: in vitro-Test with fungal microorganisms, Method A (tables C1-C10); assay type: cell-based
Method in brief: as §1

Cercospora beticola [4] = experiment: in vitro-Test with fungal microorganisms, Method B (tables C11-C20); assay type: cell-based; details: single compound
Method in brief: as §2

[5] = system: Colletotrichum lindemuthianum; experiment: in vitro-Test with fungal microorganisms, Method A (tables D1-D8); assay type: cell-based
Method in brief: as §1

Cordana musae [6] = experiment: in vitro-Test with fungal microorganisms, Method A (tables E1-E8); assay type: cell-based; details: single substance
Method in brief: as §1

Cordana musae [7] = experiment: in vitro-Test with fungal microorganisms, Method B (tables E9-E16); assay type: cell-based; details: for Efficacy %: single substance
Method in brief: as §2

Diaporthe citri [8] = experiment: in vitro-Test with fungal microorganisms, Method A (tables F1-F11); assay type: cell-based; details: applied alone
Method in brief: as §1

Diaporthe citri [9] = experiment: in vitro-Test with fungal microorganisms, Method B (tables F12-F15); assay type: cell-based
Method in brief: as §2

Fusarium culmorum = experiment: in vitro-Test with fungal microorganisms, Method B (tables G5-G15); assay type: cell-based
Method in brief: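 Compound in methanol plus alkylaryl-polyglycol-ether emulsifier dried in wells, then liquid medium containing Fusarium culmorum spores or mycelium added. Incubated 3-7 days at 20° C, 85% relative humidity; growth read at 600 nm. Efficacy relative to untreated control (0% equals control growth, 100% none).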

Parastagonospora nodorum = experiment: in vitro-Test with fungal microorganisms, Method A (tables H1-H4); assay type: cell-based
Procedure: Example: In Vitro-Test with Fungal Microorganisms
Wells of 96-well microtiter plates are filled with 10 μl of a preparation of test compound or compound combination in methanol+emulsifier alkylaryl-polyglycol-ether. Thereafter, the solvent is evaporated in a hood. At the next step, 100 μl of liquid potato dextrose medium is given into each well, that has been amended with an appropriate concentration of spores or mycelium suspension of the test fungus.
With the aid of a photometer, the extinction in all wells is measured at the wavelength of 620 nm.
The microtiter plates are incubated at 20° C. and 85% relative humidity. The inhibition of growth is determined again photometrically 3-5 days after the application. Efficacy is calculated in relation to the untreated control, 0% efficacy means fungal growth as high as in untreated control while 100% efficacy means no fungal growth is measured.
The data in tables A1 to A12, B1 to B14, C1 to C10, D1 to D8, E1 to E8, F1 to F11, G1 to G4, H1 to H4 and I1 to I5 were collected according to Method A. The data in tables A13 to A22, B15 to B18, C11 to C20, E9 to E16, F12 to F15, G5 to G15, H5 to H8, I6 to I11 and J1 to J11 were collected according to Method B.

[10] = system: Ustilago segetum var. avenae; experiment: in vitro-Test with fungal microorganisms, Method A (tables I1-I5); assay type: cell-based; details: alone
Method in brief: as §1

[11] = system: Ustilago segetum var. avenae; experiment: in vitro-Test with fungal microorganisms, Method B (tables I6-I11); assay type: cell-based
Method in brief: as §2

Colletotrichum coccodes = experiment: in vitro-Test with fungal microorganisms, Method B (tables J1-J11); assay type: cell-based
Method in brief: as §2

Question: For `COc1ccnc(C(=O)N[C@H]2COC(=O)[C@H](Cc3ccccc3)[C@@H](OC(=O)C(C)C)[C@H](C)OC2=O)c1OCOC(=O)C(C)C` [(3.025) fenpicoxamid, fenpicoxamid], which Efficacy % (Alternaria alternate; 0.04 ppm) is on record?
Answer: 5% and 9%

Question: And the Efficacy % (Alternaria alternate; 0.2 ppm)?
Answer: 2% and 7%

Question: And the Efficacy % (Alternaria alternate; 1.0 ppm)?
Answer: 41% and 30%

Question: And the Efficacy % (Alternaria alternate; 5.0 ppm)?
Answer: 76% and 59%

Question: And the Efficacy (Alternaria alternata; 0.008 ppm)?
Answer: 6%

Question: And the Efficacy (Alternaria alternata; 0.04 ppm)?
Answer: 14%

Question: And the Efficacy (Alternaria alternata; 1 ppm)?
Answer: 61%

Question: What about the Efficacy (Botrytis cinerea [1]; 0.04 ppm) of the same compound?
Answer: 6%

Question: What about the Efficacy (Botrytis cinerea [1]; 0.2 ppm) of the same compound?
Answer: 6%

Question: What about the Efficacy (Botrytis cinerea [1]; 1.0 ppm) of the same compound?
Answer: 21%

Question: And the Efficacy % (Botrytis cinerea [1]; 0.04 ppm)?
Answer: 15%

Question: And the Efficacy % (Botrytis cinerea [1]; 0.2 ppm)?
Answer: 9%

Question: What about the Efficacy % (Botrytis cinerea [1]; 1.0 ppm) of the same compound?
Answer: 15%

Question: What about the Efficacy % (Botrytis cinerea [1]; 5.0 ppm) of the same compound?
Answer: 45%

Question: What about the Efficacy % (Botrytis cinerea [2]; 0.008 ppm) of the same compound?
Answer: 0%

Question: And the Efficacy % (Botrytis cinerea [2]; 0.2 ppm)?
Answer: 14%

Question: What about the Efficacy % (Botrytis cinerea [2]; 1 ppm) of the same compound?
Answer: 52%

Question: What about the Efficacy % (Cercospora beticola [3]; 0.04 ppm) of the same compound?
Answer: 0%

Question: What about the Efficacy % (Cercospora beticola [3]; 0.2 ppm) of the same compound?
Answer: 2%

Question: And the Efficacy % (Cercospora beticola [3]; 0.2 ppm alone)?
Answer: 41% and 35%

Question: And the Efficacy % (Cercospora beticola [3]; 1.0 ppm)?
Answer: 20%

Question: And the Efficacy % (Cercospora beticola [3]; 1.0 ppm alone)?
Answer: 62% and 53%

Question: And the Efficacy % (Cercospora beticola [3]; 5.0 ppm)?
Answer: 98%

Question: What about the Efficacy % (Cercospora beticola [3]; 5.0 ppm alone) of the same compound?
Answer: 92% and 88%

Question: And the Efficacy % (Cercospora beticola [4]; 0.008 ppm)?
Answer: 0%

Question: What about the Efficacy % (Cercospora beticola [4]; 0.2 ppm) of the same compound?
Answer: 17% and 31%

Question: What about the Efficacy % (Cercospora beticola [4]; 1 ppm) of the same compound?
Answer: 97% and 100%

Question: What about the Efficacy % ([5]; single active at 0.04 ppm) of the same compound?
Answer: 0%

Question: And the Efficacy % ([5]; single active at 0.2 ppm)?
Answer: 5%

Question: What about the Efficacy % ([5]; single active at 1.0 ppm) of the same compound?
Answer: 69% and 66%

Question: What about the Efficacy % ([5]; single active at 5.0 ppm) of the same compound?
Answer: 79% and 86%

Question: What about the Efficacy % (Cordana musae [6]; 1.0 ppm) of the same compound?
Answer: 40%

Question: And the Efficacy % (Cordana musae [6]; 5.0 ppm)?
Answer: 80%

Question: What about the Efficacy (Cordana musae [7]; single active, 0.2 ppm) of the same compound?
Answer: 44%

Question: And the Efficacy % (Cordana musae [7]; 0.008 ppm)?
Answer: 0%

Question: What about the Efficacy % (Cordana musae [7]; 0.2 ppm) of the same compound?
Answer: 52%

Question: What about the Efficacy (Diaporthe citri [8]; 0.04 ppm) of the same compound?
Answer: 3%

Question: What about the Efficacy (Diaporthe citri [8]; 1.0 ppm) of the same compound?
Answer: 79% and 66%

Question: And the Efficacy (Diaporthe citri [8]; 5.0 ppm)?
Answer: 92%

Question: What about the Efficacy (Diaporthe citri [9]; Table F12, 0.008 ppm alone) of the same compound?
Answer: 0%

Question: What about the Efficacy (Diaporthe citri [9]; Table F12, 0.2 ppm alone) of the same compound?
Answer: 83%

Question: What about the Efficacy (Diaporthe citri [9]; Table F12, 1 ppm alone) of the same compound?
Answer: 94%

Question: What about the Efficacy (Diaporthe citri [9]; Table F13, 0.2 ppm alone) of the same compound?
Answer: 79%

Question: And the Efficacy (Fusarium culmorum; 0.008 ppm alone)?
Answer: 10%

Question: And the Efficacy (Fusarium culmorum; single active compound, 0.008 ppm)?
Answer: 7% and 5%

Question: What about the Efficacy (Fusarium culmorum; single active compound, 0.04 ppm) of the same compound?
Answer: 1% and 9%

Question: What about the Efficacy (Fusarium culmorum; single active compound, 0.2 ppm) of the same compound?
Answer: 18% and 25%

Question: What about the Efficacy (Fusarium culmorum; single active compound, 1 ppm) of the same compound?
Answer: 17%

Question: What about the Efficacy (Parastagonospora nodorum; 0.04 ppm) of the same compound?
Answer: 19%

Question: And the Efficacy (Parastagonospora nodorum; 0.2 ppm)?
Answer: 61%

Question: What about the Efficacy (Parastagonospora nodorum; 1.0 ppm) of the same compound?
Answer: 64%

Question: And the Efficacy (Parastagonospora nodorum; 5.0 ppm)?
Answer: 72%

Question: And the Efficacy % ([10]; 0.04 ppm)?
Answer: 0%

Question: What about the Efficacy % ([10]; 0.2 ppm) of the same compound?
Answer: 0%

Question: What about the Efficacy % ([10]; 1.0 ppm) of the same compound?
Answer: 0%

Question: What about the Efficacy % ([10]; 5.0 ppm) of the same compound?
Answer: 0%

Question: And the Efficacy % ([11]; 0.008 ppm)?
Answer: 14%

Question: And the Efficacy % ([11]; 0.04 ppm)?
Answer: 6%

Question: And the Efficacy % ([11]; 0.2 ppm)?
Answer: 1%

Question: And the Efficacy % (Colletotrichum coccodes; single active compound at 0.2 ppm)?
Answer: 23% and 33%

Question: And the Efficacy % (Colletotrichum coccodes; single active compound at 1 ppm)?
Answer: 16%
